In patent US12275734B1, “Pleuromutilin onium salt derivative containing a 3H-imidazo[4,5-c]pyridine side chain, and a preparation method and application thereof” (SHAANXI UNIVERSITY OF SCIENCE AND TECHNOLOGY, priority 2024, dated 2025):

Tests used:
Experiment in all cases: MIC, broth microdilution
Assay type in all cases: cell-based
A. baumannii ATCC 19606 = conditions: Acinetobacter baumannii, ATCC19606; A. baumannii ATCC 19606; read-out: Minimum inhibitory concentration A.b.^f
Procedure: (§1) The minimum inhibitory concentration of 3H-imidazo[4,5-C]pyridine pleuromutilin onium salt derivatives against the tested pathogenic microorganisms were determined by broth microdilution method, with valnemulin and retapamulin as positive controls.
(§2) The experimental strains included resistant Gram-positive bacteria: Methicillin-resistant S. aureus ATCC 33591; Methicillin-resistant S. aureus ATCC 43300; S. aureus ATCC 29213; Methicillin-resistant S. epidermidis ATCC 51625. Resistant Gram-negative bacteria: A. baumannii ATCC 19606; S. enterica ATCC14028; E. coli ATCC 25922; E. coli CMCC 44103. 9 clinically isolated resistant strains: MRSA-171; MRSA-575; MRSA-206; MRSA-222; MRSA-596; VRE-80; MDR-PA-126; MDR-KP-893; CR-AB-882.
(§3) (1) Preparation of MHB medium: Weigh 18.0 g of MHB medium pre-made powder, add it to 1 L of distilled water, heat and boil until completely dissolved, divide it into conical bottles, sterilize it by high pressure at 121° C. for 15 minutes, and set aside.
(§4) (2) Cultivate the experimental strain to the logarithmic growth phase: Under sterile conditions, inoculate the experimental strain into fresh MHB medium and culture it in a 37° C. constant temperature and humidity incubator for 16-24 hours. Adjust the bacterial solution concentration to 1.5×10^8 CFU/mL and then dilute it 200 times for later use.
(§5) (3) Preparation of storage solution: Weigh the sample to be tested, dissolve it in 1% DMSO solution, and prepare a storage solution with a concentration of 2560 μg/mL; weigh the positive control, dissolve it in sterile distilled water, and prepare a storage solution with a concentration of 2560 μg/mL.
(§6) (4) Preparation of bacterial suspension: Under sterile conditions, the experimental strain cultured to the logarithmic growth phase was calibrated to a 0.5 McFarland unit turbidity standard using MHB medium and then diluted at a ratio of 1:200 to prepare a bacterial suspension with a concentration of 5×10^5 CFU/mL for later use.
(§7) (5) Determination of MIC by two-fold microdilution method: Take a sterile 96-well plate, add 10 μL of the test compound at a concentration of 2560 μg/mL, and perform serial dilutions by the two-fold dilution method. At the same time, set up a negative control group without drug. Then add 190 μL of diluted bacterial solution to each well, so that the final bacterial solution concentration in each well is 5×10^5 CFU/mL, and incubate in a 37° C. constant temperature and humidity chamber for 24 hours.

E. coli ATCC 25922 = conditions: Escherichia coli, ATCC25922; E. coli ATCC 25922; read-out: Minimum inhibitory concentration E.c.^h
Procedure: as §1, §2, §3, §4, §5, §6, §7

E.coli CMCC 44103 = conditions: Escherichia coli, CMCC44103; E.coli CMCC 44103; read-out: Minimum inhibitory concentration E.c.^i
Procedure: as §1, §2, §3, §4, §5, §6, §7

[1] = test system: Methicillin-resistant S. aureus ATCC 33591; conditions: Staphylococcus aureus, ATCC 33591 / MRSA; Methicillin-resistant S. aureus ATCC 33591; read-out: Minimum inhibitory concentration MRSA^b
Procedure: as §1, §2, §3, §4, §5, §6, §7

[2] = test system: Methicillin-resistant S. aureus ATCC 43300; conditions: Staphylococcus aureus, ATCC 43300 / MRSA; Methicillin-resistant S. aureus ATCC 43300; read-out: Minimum inhibitory concentration MRSA^c
Procedure: as §1, §2, §3, §4, §5, §6, §7

[3] = test system: Methicillin-resistant S. epidermidis ATCC 51625; conditions: Staphylococcus epidermidis, ATCC 51625 / MRSE; Methicillin-resistant S. epidermidis ATCC 51625; read-out: Minimum inhibitory concentration MRSE^e
Procedure: as §1, §2, §3, §4, §5, §6, §7

S. aureus ATCC 29213 = conditions: Staphylococcus aureus, ATCC29213; S. aureus ATCC 29213; read-out: Minimum inhibitory concentration S.a.^d
Procedure: as §1, §2, §3, §4, §5, §6, §7

S. enterica ATCC14028 = conditions: Salmonella enterica; S. enterica ATCC14028; read-out: Minimum inhibitory concentration S.e.^g
Procedure: as §1, §2, §3, §4, §5, §6, §7

SMILES	MIC (A. baumannii ATCC 19606) [µg/mL]	MIC (E. coli ATCC 25922) [µg/mL]	MIC (E.coli CMCC 44103) [µg/mL]	MIC [1] [µg/mL]	MIC [2] [µg/mL]	MIC [3] [µg/mL]	MIC (S. aureus ATCC 29213) [µg/mL]	MIC (S. enterica ATCC14028) [µg/mL]
C=C[C@]1(C)C[C@@H](OC(=O)CSc2nc3cc[n+](Cc4ccc(F)cc4)cc3[nH]2)[C@]2(C)[C@H](C)CC[C@]3(CCC(=O)[C@H]32)[C@@H](C)[C@@H]1O [Compound c, 5-(4-fluorobenzyl)-2-((2-(((3aR,4R,5R,7S,8S,9R,9aS,12R)-8-hydroxy-4,7,9,12-tetramethyl-3-oxo-7-vinyldecahydro-4,9a-propancyclopenta[8]cyclo-5-yl)oxy)-2-oxoethyl)thio)-3H-imidazo[4,5-C]pyridine-5-ium]	32	8	8	8	16	16	4	16
C=C[C@]1(C)C[C@@H](OC(=O)CSc2nc3cc[n+](Cc4ccc(-c5ccccc5)cc4)cc3[nH]2)[C@]2(C)[C@H](C)CC[C@]3(CCC(=O)[C@H]32)[C@@H](C)[C@@H]1O [Compound j, 5-([1,1′-biphenyl]-4-ylmethyl)-2-((2-(((3aR,4R,5R,7S,8S,9R,9aS,12R)-8-hydroxy-4,7,9,12-tetramethyl-3-oxo-7-vinyldecahydro-4,9a-propancyclopenta[8]cyclo-5-yl)oxy)-2-oxoethyl)thio)-3H-imidazo[4,5-C]pyridine-5-ium]	16	64	8	32	16	32	4	8
